Experiments:
[1] = test system: cardiomyocytes differentiated from hiPSC's; assay: Etoposide sensitivity assay during cardiomyocyte differentiation of hiPSC's; type: cell-based, human; conditions: mature, beating cardiomyocytes (Day 9)
[2] = test system: human induced pluripotent stem cells; assay: Etoposide sensitivity assay (ESA), Annexin V/PI flow cytometry; type: cell-based; conditions: for EC50: Homo sapiens, 24 h
Method: An assay for assessing pluripotency or for releasing a stem cell population for clinical diagnostic or therapeutic use can include obtaining a series of cell samples from the population being assessed. Each of these samples can be contacted with an increasing concentration of one or more DNA damaging agent(s). Any appropriate length of time can be used for the incubation period. For example, the cells can be incubated as 37° C. for between about 30 minutes and about 48 hours (e.g., between about 30 minutes and about 36 hours, between about 30 minutes and about 24 hours, or between about 1 hour and about 24 hours). After this contacting step, the cells can be evaluated using, for example, flow cytometry to determine how susceptible the cells are to apoptosis. In some cases, flow cytometry can be carried out as follows. Briefly, pluripotent stem cells can be seeded in plates (e.g., 24 well plates) and treated with etoposide (Sigma-Aldrich) or DMSO for a period of time (e.g., about 24 hours) at, for example, about 50% confluence. Media and cells can be stained with Annexin V FITC/PI and analyzed via flow cytometry (e.g., via a Gallios (Beckman Coulter) flow cytometer). Data analysis can be performed using Kaluza (Beckman Coulter) software and normalized by dividing the triplicate means (viable non-staining cells) by the corresponding DMSO control. Human pluripotent stem cell clones were assessed for etoposide sensitivity as follows. Mechanically processed hiPSC's were seeded onto a 24-well plate (1×60 mm dish: 1×24-well plate), maintained for 3-5 days, and subsequently treated with etoposide (1, 10, 50, 100, 250, 500, and 1,000 nM, all performed in triplicate wells) or vehicle control (DMSO) for 24 hours. Conditioned media was collected into appropriately labeled 12×75 mm flow tubes, and 200 μL of TryPLE was added to each well. Following a brief incubation at 37° C. (5-10 minutes), 1 mL of pre-warmed (37° C.) FAC's buffer (4 mM EDTA, 0.5% FBS, 1×DPBS pH 7.4 w/o Ca^2+, Mg^2+) was added to each well. The total well contents were transferred to their corresponding conditioned media tubes, and all tubes were spun down at 400×G for 5 minutes. Tubes were washed 1× with ice-cold Annexin Binding Buffer (ABB, 10 mM HEPES, 2.5 mM CaCl2, 140 mM NaCl, pH 7.4) and stained with Annexin-FITC (BD 556420, 5 μL in 100 μL total ABB per tube) for 30 minutes on ice while protected from light. All tubes were washed 1× in ABB, and the resulting cell pellets were resuspended in 400 μL of ABB supplemented with 1 μL of 1 mg/mL propidium iodide (Sigma-Aldrich, P4864). Samples were immediately assayed by flow cytometry (Gallios, Beckman Coulter), and data were subsequently analyzed for percent viability using Kaluza software (Beckman Coulter).

EC50 ([2]; cleaned (C) hiPSC cultures after removal of poor quality clones/cells, 24 hours): < 300 nM | EC50 ([2]; poor quality clones/cells from unclean (UC) hiPSC cultures, feeder free): > 300 nM
SMILES: COc1cc([C@@H]2c3cc4c(cc3[C@@H](O[C@@H]3O[C@@H]5CO[C@@H](C)O[C@H]5[C@H](O)[C@H]3O)[C@H]3COC(=O)[C@H]23)OCO4)cc(OC)c1O [etoposide]
sensitivity to etoposide [1]: near complete lack of sensitivity | etoposide sensitivity ([2]; Sendai virus derived hiPSC clones compared to lentivirus reprogrammed clones, 126 clones): significant decrease in etoposide sensitivity | etoposide sensitivity ([2]; hiPSC clones of poor quality and cellular differentiation, feeder free conditions): reduced or negligible etoposide sensitivity | sensitivity to etoposide ([2]; hiPSC lines RT 4.1 and RT 6.21 compared with other hiPSC lines, 24 hours): greatest sensitivity
